From ChEMBL document CHEMBL1201862, “PubChem BioAssay data set” (2004)
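Growth conditions: 96-well plates. Treatment: test compound, 48 hours, 5 concentrations. Analysis: linear interpolation between bracketing concentrations; unreached endpoints set to highest concentration. The concentration for 50% growth inhibition is given as GI50.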 Activity calls are given as the source filed them. Rule as the data show it: active = GI50 up to about 1.1 µM and inactive = higher.

Columns and labels:
Test in all cases: growth of human tumour cells (NCI), 48 h
Hs-578T = test system: Hs-578T
CAKI-1 = test system: CAKI-1
SK-MEL-2 = test system: SK-MEL-2
K562 = test system: K562
HT-29 = test system: HT-29
UACC-62 = test system: UACC-62
SNB-75 = test system: SNB-75
PC-3 = test system: PC-3
SF-268 = test system: SF-268
IGROV-1 = test system: IGROV-1
ACHN = test system: ACHN
SF-539 = test system: SF-539
HCC 2998 = test system: HCC 2998
UO-31 = test system: UO-31
786-0 = test system: 786-0
SNB-19 = test system: SNB-19
BT-549 = test system: BT-549
HOP-62 = test system: HOP-62
RPMI-8226 = test system: RPMI-8226

## CCN(CC)CCn1ncc2ccc3c(c(=O)c4cccnc4n3CCN(CC)CC)c21
Hs-578T
  GI50: 2.17 µM (inactive)
CAKI-1
  GI50: 3.54 µM (inactive)
SK-MEL-2
  GI50: 1.79 µM (inactive)
K562
  GI50: 0.119 µM (active)
HT-29
  GI50: 0.435 µM (active)
UACC-62
  GI50: 2.49 µM (inactive)
SNB-75
  GI50: 1.05 µM (active)
PC-3
  GI50: 0.986 µM (active)
SF-268
  GI50: 1.35 µM (inactive)
IGROV-1
  GI50: 0.625 µM (active)
ACHN
  GI50: 0.733 µM (active)
SF-539
  GI50: 0.589 µM (active)
HCC 2998
  GI50: 0.75 µM (active)
UO-31
  GI50: 1.5 µM (inactive)
786-0
  GI50: 0.438 µM (active)
SNB-19
  GI50: 1.97 µM (inactive)
BT-549
  GI50: 2.25 µM (inactive)
HOP-62
  GI50: 0.867 µM (active)
RPMI-8226
  GI50: 0.931 µM (active)

## FC(F)(F)c1ccc2c(c1)nc(Cc1ccccc1)n2C[C@@H]1CCCN2CCCCC12 (stereo not given in full)
Hs-578T
  GI50: 18.5 µM (inactive)
CAKI-1
  GI50: 15.1 µM (inactive)
SK-MEL-2
  GI50: 16.3 µM (inactive)
K562
  GI50: 18.9 µM (inactive)
HT-29
  GI50: 12 µM (inactive)
UACC-62
  GI50: 16.7 µM (inactive)
SNB-75
  GI50: 15.1 µM (inactive)
PC-3
  GI50: 14.3 µM (inactive)
SF-268
  GI50: 14.8 µM (inactive)
IGROV-1
  GI50: 12.9 µM (inactive)
ACHN
  GI50: 13.5 µM (inactive)
SF-539
  GI50: 18.8 µM (inactive)
HCC 2998
  GI50: 4.68 µM (inactive)
UO-31
  GI50: 0.19 µM (active)
786-0
  GI50: 13.9 µM (inactive)
SNB-19
  GI50: 14.8 µM (inactive)
BT-549
  GI50: 14 µM (inactive)
HOP-62
  GI50: 14.6 µM (inactive)
RPMI-8226
  GI50: 17.1 µM (inactive)

## CNc1ncnc2c1ncn2C1C=CC(COS(N)(=O)=O)C1 (stereo not given)
Hs-578T
  GI50: > 100 µM (inactive)
CAKI-1
  GI50: > 100 µM (inactive)
SK-MEL-2
  GI50: > 100 µM (inactive)
K562
  GI50: > 100 µM (inactive)
HT-29
  GI50: > 100 µM (inactive)
UACC-62
  GI50: > 100 µM (inactive)
SNB-75
  GI50: > 100 µM (inactive)
PC-3
  GI50: > 100 µM (inactive)
SF-268
  GI50: > 100 µM (inactive)
IGROV-1
  GI50: > 100 µM (inactive)
ACHN
  GI50: > 100 µM (inactive)
SF-539
  GI50: > 100 µM (inactive)
HCC 2998
  GI50: > 100 µM (inactive)
UO-31
  GI50: > 100 µM (inactive)
786-0
  GI50: > 100 µM (inactive)
SNB-19
  GI50: > 100 µM (inactive)
BT-549
  GI50: > 100 µM (inactive)
HOP-62
  GI50: > 100 µM (inactive)
RPMI-8226
  GI50: > 100 µM (inactive)

## O=[N+]([O-])c1ccc(-c2cc(O)c3nc4ccccc4n3c2)cc1
Hs-578T
  GI50: > 100 µM (inactive)
CAKI-1
  GI50: > 100 µM (inactive)
SK-MEL-2
  GI50: > 100 µM (inactive)
K562
  GI50: > 100 µM (inactive)
HT-29
  GI50: > 100 µM (inactive)
UACC-62
  GI50: > 31.6 µM (inactive)
SNB-75
  GI50: > 40.9 µM (inactive)
PC-3
  GI50: > 100 µM (inactive)
SF-268
  GI50: > 56.5 µM (inactive)
IGROV-1
  GI50: > 100 µM (inactive)
ACHN
  GI50: 65.2 µM (inactive)
SF-539
  GI50: > 100 µM (inactive)
HCC 2998
  GI50: > 100 µM (inactive)
UO-31
  GI50: > 91.4 µM (inactive)
786-0
  GI50: > 90.6 µM (inactive)
SNB-19
  GI50: > 53.7 µM (inactive)
BT-549
  GI50: > 100 µM (inactive)
HOP-62
  GI50: 28.6 µM (inactive)
RPMI-8226
  GI50: > 100 µM (inactive)

## c1ccc2c(c1)CCc1[nH]c3c(c1-2)-c1ccccc1CC3
Hs-578T
  GI50: 36.9 µM (inactive)
CAKI-1
  GI50: 91.6 µM (inactive)
SK-MEL-2
  GI50: > 100 µM (inactive)
K562
  GI50: 36.7 µM (inactive)
HT-29
  GI50: 32.3 µM (inactive)
UACC-62
  GI50: > 100 µM (inactive)
SNB-75
  GI50: 80.5 µM (inactive)
PC-3
  GI50: 64.1 µM (inactive)
SF-268
  GI50: 78 µM (inactive)
IGROV-1
  GI50: > 100 µM (inactive)
ACHN
  GI50: > 100 µM (inactive)
SF-539
  GI50: > 100 µM (inactive)
HCC 2998
  GI50: 36 µM (inactive)
UO-31
  GI50: > 100 µM (inactive)
786-0
  GI50: 83 µM (inactive)
SNB-19
  GI50: > 100 µM (inactive)
BT-549
  GI50: > 100 µM (inactive)
HOP-62
  GI50: 15.1 µM (inactive)
RPMI-8226
  GI50: 43.1 µM (inactive)

## COc1ccc(/N=c2\ssc(C(=S)Nc3ccc(OC)cc3)c2S)cc1
Hs-578T
  GI50: > 100 µM (inactive)
CAKI-1
  GI50: > 100 µM (inactive)
SK-MEL-2
  GI50: > 100 µM (inactive)
K562
  GI50: 37.7 µM (inactive)
HT-29
  GI50: > 100 µM (inactive)
UACC-62
  GI50: > 100 µM (inactive)
SNB-75
  GI50: > 100 µM (inactive)
PC-3
  GI50: > 100 µM (inactive)
SF-268
  GI50: > 100 µM (inactive)
IGROV-1
  GI50: > 100 µM (inactive)
ACHN
  GI50: > 100 µM (inactive)
SF-539
  GI50: > 100 µM (inactive)
HCC 2998
  GI50: 32.4 µM (inactive)
UO-31
  GI50: > 100 µM (inactive)
786-0
  GI50: > 100 µM (inactive)
SNB-19
  GI50: > 100 µM (inactive)
BT-549
  GI50: > 100 µM (inactive)
HOP-62
  GI50: > 100 µM (inactive)
RPMI-8226
  GI50: > 100 µM (inactive)

## CCCN(CCC)C(=S)Sc1nc(C)nc(N2CCN(c3nc(C)nc(SC(=S)N(CCC)CCC)c3[N+](=O)[O-])CC2)c1[N+](=O)[O-]
Hs-578T
  GI50: > 63.7 µM (inactive)
CAKI-1
  GI50: 9.16 µM (inactive)
SK-MEL-2
  GI50: 7.16 µM (inactive)
K562
  GI50: 1.11 µM (active)
HT-29
  GI50: 2.07 µM (inactive)
UACC-62
  GI50: 7.94 µM (inactive)
SNB-75
  GI50: 27.5 µM (inactive)
PC-3
  GI50: 15.2 µM (inactive)
SF-268
  GI50: 18.8 µM (inactive)
IGROV-1
  GI50: 11.4 µM (inactive)
ACHN
  GI50: 13.9 µM (inactive)
SF-539
  GI50: 26.8 µM (inactive)
HCC 2998
  GI50: 16.5 µM (inactive)
UO-31
  GI50: 17.9 µM (inactive)
786-0
  GI50: 3.62 µM (inactive)
SNB-19
  GI50: 22.6 µM (inactive)
BT-549
  GI50: 5.2 µM (inactive)
HOP-62
  GI50: 29.4 µM (inactive)
RPMI-8226
  GI50: 0.386 µM (active)

## CN(C)c1ccc(C=C2N=C(c3ccccc3)N(c3cc(C(=O)c4ccccc4)ccc3N3C(=O)/C(=C/c4ccc(N(C)C)cc4)N=C3c3ccccc3)C2=O)cc1
Hs-578T
  GI50: 4.2 µM (inactive)
CAKI-1
  GI50: 14 µM (inactive)
SK-MEL-2
  GI50: 3.29 µM (inactive)
K562
  GI50: 3.95 µM (inactive)
HT-29
  GI50: 4.28 µM (inactive)
UACC-62
  GI50: 4.24 µM (inactive)
SNB-75
  GI50: 4.78 µM (inactive)
PC-3
  GI50: 3.51 µM (inactive)
SF-268
  GI50: 14.4 µM (inactive)
IGROV-1
  GI50: 5.86 µM (inactive)
ACHN
  GI50: 6.31 µM (inactive)
SF-539
  GI50: 2.34 µM (inactive)
HCC 2998
  GI50: 3.76 µM (inactive)
UO-31
  GI50: 15.8 µM (inactive)
786-0
  GI50: 6.17 µM (inactive)
SNB-19
  GI50: 7.94 µM (inactive)
BT-549
  GI50: 28.3 µM (inactive)
HOP-62
  GI50: 20.7 µM (inactive)
RPMI-8226
  GI50: 3.01 µM (inactive)

## Cc1c(Cc2ccccc2)c(Cc2ccccc2)c(C)[s+]1[O-]
Hs-578T
  GI50: 37.8 µM (inactive)
CAKI-1
  GI50: 22.7 µM (inactive)
SK-MEL-2
  GI50: 16.9 µM (inactive)
K562
  GI50: 21.2 µM (inactive)
HT-29
  GI50: 16.7 µM (inactive)
UACC-62
  GI50: 14.5 µM (inactive)
SNB-75
  GI50: 20 µM (inactive)
PC-3
  GI50: 18.8 µM (inactive)
SF-268
  GI50: 51.1 µM (inactive)
IGROV-1
  GI50: 36.8 µM (inactive)
ACHN
  GI50: 32.7 µM (inactive)
SF-539
  GI50: 45.2 µM (inactive)
HCC 2998
  GI50: 19.6 µM (inactive)
UO-31
  GI50: 31.7 µM (inactive)
786-0
  GI50: 22.9 µM (inactive)
SNB-19
  GI50: 47.1 µM (inactive)
BT-549
  GI50: 33.2 µM (inactive)
HOP-62
  GI50: 50.4 µM (inactive)
RPMI-8226
  GI50: 19.7 µM (inactive)

## Cc1cn(C2CC(N=[N+]=[N-])C(CO[Si](C)(C)C(C)(C)C)O2)c(=O)[nH]c1=O (stereo not given)
Hs-578T
  GI50: 17.6 µM (inactive)
CAKI-1
  GI50: 16.4 µM (inactive)
SK-MEL-2
  GI50: 15.2 µM (inactive)
K562
  GI50: 20.8 µM (inactive)
HT-29
  GI50: 16.8 µM (inactive)
UACC-62
  GI50: 14.6 µM (inactive)
SNB-75
  GI50: 19.3 µM (inactive)
PC-3
  GI50: 15.7 µM (inactive)
SF-268
  GI50: 19.5 µM (inactive)
IGROV-1
  GI50: 18.7 µM (inactive)
ACHN
  GI50: 21.8 µM (inactive)
SF-539
  GI50: 18 µM (inactive)
HCC 2998
  GI50: 12.6 µM (inactive)
UO-31
  GI50: 16.6 µM (inactive)
786-0
  GI50: 15.6 µM (inactive)
SNB-19
  GI50: 19.8 µM (inactive)
BT-549
  GI50: 10.7 µM (inactive)
HOP-62
  GI50: 16.4 µM (inactive)
RPMI-8226
  GI50: 17.9 µM (inactive)
